Data as given in PubChem BioAssay (NCI).
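Grown in 96-well plates, cells were treated for 48 hours with each compound at five concentrations. Insufficient inhibition: endpoint recorded as highest concentration tested. At the TGI there is no net growth.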

Tests used:
Experiment in all cases: NCI-60 cell line screen, 48 h
[1] = system: A498 renal
[2] = system: A549 NSCLC
[3] = system: ACHN renal
[4] = system: BT-549 breast
[5] = system: CCRF-CEM leukemia
[6] = system: COLO 205 colon
[7] = system: DU-145 prostate
[8] = system: EKVX NSCLC
[9] = system: HCC-2998 colon
[10] = system: HCT-116 colon
[11] = system: HCT-15 colon
[12] = system: HL-60(TB) leukemia
[13] = system: HOP-62 NSCLC
[14] = system: HS 578T breast
[15] = system: HT29 colon
[16] = system: IGROV1 ovarian
[17] = system: KM12 colon
[18] = system: LOX IMVI melanoma
[19] = system: MALME-3M melanoma
[20] = system: MCF7 breast
[21] = system: MDA-MB-231 breast
[22] = system: MOLT-4 leukemia
[23] = system: NCI-H226 lung
[24] = system: NCI-H23 lung
[25] = system: NCI/ADR-RES ovarian
[26] = system: OVCAR-3 ovarian
[27] = system: OVCAR-5 ovarian
[28] = system: OVCAR-8 ovarian
[29] = system: PC-3 prostate
[30] = system: RPMI-8226 leukemia
[31] = system: RXF 393 renal
[32] = system: SF-268 CNS
[33] = system: SF-295 CNS
[34] = system: SF-539 CNS
[35] = system: SK-MEL-28 melanoma
[36] = system: SK-MEL-5 melanoma
[37] = system: SK-OV-3 ovarian
[38] = system: SN12C renal
[39] = system: SNB-19 CNS
[40] = system: SW-620 colon
[41] = system: T-47D breast
[42] = system: TK-10 renal
[43] = system: U251 CNS
[44] = system: UACC-257 melanoma
[45] = system: UACC-62 melanoma
[46] = system: UO-31 renal
[47] = system: 786-0 renal
[48] = system: CAKI-1 renal
[49] = system: HOP-92 NSCLC
[50] = system: K-562 leukemia
[51] = system: M14 melanoma
[52] = system: MDA-MB-435
[53] = system: NCI-H460 lung
[54] = system: NCI-H522 lung
[55] = system: OVCAR-4 ovarian
[56] = system: SK-MEL-2 melanoma
[57] = system: SNB-75 CNS
[58] = system: SR leukemia

Compound: O=C(CNc1cccc([N+](=O)[O-])c1)Nn1c(-c2ccccc2)nc2ccccc2c1=O
- TGI [1]: 0.274 µM
- TGI [2]: 4.9 µM
- TGI [3]: 3.34 µM
- TGI [4]: > 100 µM
- TGI [5]: 1.15 µM
- TGI [6]: 3.17 µM
- TGI [7]: 5.47 µM
- TGI [8]: 6.86 µM
- TGI [9]: 2.81 µM
- TGI [10]: 2.09 µM
- TGI [11]: 2.23 µM
- TGI [12]: 1.81 µM
- TGI [13]: 4.25 µM
- TGI [14]: 3.6 µM
- TGI [15]: 1.08 µM
- TGI [16]: 0.482 µM
- TGI [17]: 4.42 µM
- TGI [18]: 0.663 µM
- TGI [19]: 2.41 µM
- TGI [20]: 1.71 µM
- TGI [21]: 2.9 µM
- TGI [22]: 0.818 µM
- TGI [23]: 0.512 µM
- TGI [24]: 9.32 µM
- TGI [25]: 1.89 µM
- TGI [26]: 5.15 µM
- TGI [27]: 3.46 µM
- TGI [28]: 5.31 µM
- TGI [29]: 1.85 µM
- TGI [30]: 3.36 µM
- TGI [31]: 1.08 µM
- TGI [32]: 4.22 µM
- TGI [33]: 3.28 µM
- TGI [34]: 4.7 µM
- TGI [35]: 3.04 µM
- TGI [36]: 2.31 µM
- TGI [37]: 2.04 µM
- TGI [38]: 2.73 µM
- TGI [39]: 4.99 µM
- TGI [40]: 2.05 µM
- TGI [41]: 4.54 µM
- TGI [42]: 3.95 µM
- TGI [43]: 2.88 µM
- TGI [44]: 11.8 µM
- TGI [45]: 0.608 µM
- TGI [46]: 4.12 µM

Compound: CC(C)(C)c1cc(-c2cc(C(C)(C)C)n(-c3ccccc3)n2)nn1-c1ccccc1
- TGI [47]: > 100 µM
- TGI [1]: > 100 µM
- TGI [2]: > 100 µM
- TGI [3]: > 100 µM
- TGI [4]: > 100 µM
- TGI [48]: > 100 µM
- TGI [5]: > 100 µM
- TGI [6]: > 100 µM
- TGI [7]: > 100 µM
- TGI [8]: > 100 µM
- TGI [9]: > 100 µM
- TGI [10]: > 100 µM
- TGI [11]: > 100 µM
- TGI [12]: > 100 µM
- TGI [13]: > 100 µM
- TGI [49]: > 100 µM
- TGI [15]: > 100 µM
- TGI [16]: > 100 µM
- TGI [50]: > 100 µM
- TGI [17]: > 100 µM
- TGI [18]: > 100 µM
- TGI [51]: > 100 µM
- TGI [20]: > 100 µM
- TGI [21]: > 100 µM
- TGI [52]: > 100 µM
- TGI [22]: > 100 µM
- TGI [23]: > 100 µM
- TGI [24]: > 100 µM
- TGI [53]: > 100 µM
- TGI [54]: > 100 µM
- TGI [25]: > 100 µM
- TGI [26]: > 100 µM
- TGI [55]: > 100 µM
- TGI [27]: > 100 µM
- TGI [28]: > 100 µM
- TGI [29]: > 100 µM
- TGI [30]: > 100 µM
- TGI [31]: > 100 µM
- TGI [32]: > 100 µM
- TGI [33]: > 100 µM
- TGI [34]: > 100 µM
- TGI [56]: > 100 µM
- TGI [35]: > 100 µM
- TGI [36]: > 100 µM
- TGI [37]: > 100 µM
- TGI [38]: > 100 µM
- TGI [57]: > 100 µM
- TGI [58]: > 100 µM
- TGI [40]: > 100 µM
- TGI [41]: > 100 µM
- TGI [42]: > 100 µM
- TGI [43]: > 100 µM
- TGI [44]: > 100 µM
- TGI [45]: > 100 µM
- TGI [46]: > 100 µM
